Source: PubChem BioAssay AID330 (DTP/NCI, 2004)
Values joined by “and” are separate entries in the source; they are usually repeats but may differ in a detail not shown here. Identical values can stand only once. Toxic doses and inconclusive results are not listed. Square brackets hold non-standard residues; d marks the D form. Peptide text beside a SMILES is read from it. * marks the point of attachment. Cbz = O=C(OCc1ccccc1)*; Nva = CCC[CH](N)C(=O)O

System: P388 leukemia ip, CD2F1 mice, survival T/C
Experiment: NCI In Vivo Anticancer Drug Screen. Data for tumor model P388 Leukemia (intraperitoneal) in CD2F1 (CDF1) mice
Conditions: endpoint: median survival time, higher = longer survival
Procedure, shortened: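 Mice carrying the transplanted tumor received test compound or vehicle. Survival was recorded in each group, and the value is the treated-group measurement divided by that of the vehicle-treated control group.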

[1] = dose: 50.0 mg/kg/injection, schedule: Q01DX005 (ip), vehicle: saline with Tween-80
[2] = dose: 100.0 mg/kg/injection, schedule: Q01DX005 (ip), vehicle: saline with Tween-80
[3] = dose: 200.0 mg/kg/injection, schedule: Q01DX005 (ip), vehicle: saline with Tween-80
[4] = dose: 25.0 mg/kg/injection, schedule: Q04DX003 (ip), vehicle: saline with Tween-80
[5] = dose: 50.0 mg/kg/injection, schedule: Q04DX003 (ip), vehicle: saline with Tween-80
[6] = dose: 50.0 mg/kg/injection, schedule: Q01DX005 (ip), vehicle: Klucel (hydroxypropylcellulose) (HPC)
[7] = dose: 100.0 mg/kg/injection, schedule: Q01DX005 (ip), vehicle: Klucel (hydroxypropylcellulose) (HPC)
[8] = dose: 200.0 mg/kg/injection, schedule: Q01DX005 (ip), vehicle: Klucel (hydroxypropylcellulose) (HPC)
[9] = dose: 60.0 mg/kg/injection, schedule: Q01DX005 (ip), vehicle: saline with Tween-80
[10] = dose: 120.0 mg/kg/injection, schedule: Q01DX005 (ip), vehicle: saline with Tween-80
[11] = dose: 240.0 mg/kg/injection, schedule: Q01DX005 (ip), vehicle: saline with Tween-80
[12] = dose: 50.0 mg/kg/injection, schedule: Q01DX009 (ip), vehicle: saline with Tween-80
[13] = dose: 100.0 mg/kg/injection, schedule: Q01DX009 (ip), vehicle: saline with Tween-80
[14] = dose: 50.0 mg/kg/injection, schedule: Q01DX009 (ip), vehicle: saline
[15] = dose: 100.0 mg/kg/injection, schedule: Q01DX009 (ip), vehicle: saline
[16] = dose: 100.0 mg/kg/injection, schedule: Q04DX003 (ip), vehicle: saline with Tween-80

Q: Which T/C (dose: 25.0 mg/kg/injection, schedule: Q01DX009 (ip), vehicle: Klucel (hydroxypropylcellulose) (HPC)) does the source give for COc1ccc(C)cc1C(=C=C=C=C(c1cc(C)ccc1OC)c1ccccc1OCc1ccccc1)c1ccccc1OCc1ccccc1 here?
A: 101 % of control

Q: What about the T/C (dose: 50.0 mg/kg/injection, schedule: Q01DX009 (ip), vehicle: Klucel (hydroxypropylcellulose) (HPC)) of the same compound?
A: 100 % of control

Q: What about the T/C (dose: 100.0 mg/kg/injection, schedule: Q01DX009 (ip), vehicle: Klucel (hydroxypropylcellulose) (HPC)) of the same compound?
A: 93 % of control

Q: For CN1c2ccccc2C2CCCCC21 (stereo not drawn), which T/C [1] is on record?
A: 100 % of control

Q: And the T/C [2]?
A: 99 % of control

Q: And the T/C [3]?
A: 111 % of control

Q: Which T/C (dose: 12.5 mg/kg/injection, schedule: Q01DX009 (ip), vehicle: saline sonified) does the source give for CO[C@@]12[C@H](COC(N)=O)C3=C(C(=O)C(C)=C(NCCO)C3=O)N1C[C@@H]1N[C@@H]12 here?
A: 95 % of control

Q: What about the T/C (dose: 12.5 mg/kg/injection, schedule: Q04DX003 (ip), vehicle: saline with Tween-80) of the same compound?
A: 100 % of control

Q: What about the T/C (dose: 25.0 mg/kg/injection, schedule: Q01DX009 (ip), vehicle: saline sonified) of the same compound?
A: 95 % of control

Q: And the T/C [4]?
A: 100 % of control

Q: What about the T/C (dose: 50.0 mg/kg/injection, schedule: Q01DX009 (ip), vehicle: saline sonified) of the same compound?
A: 95 % of control

Q: And the T/C [5]?
A: 100 % of control

Q: Which T/C (dose: 12.5 mg/kg/injection, schedule: Q01DX005 (ip), vehicle: saline) does the source give for CCN(CC)CCCC(C)N(C)CC(C)CCC1=C(C)CCCC1(C)C (stereo not drawn) here?
A: 97 % of control

Q: What about the T/C (dose: 25.0 mg/kg/injection, schedule: Q01DX005 (ip), vehicle: saline) of the same compound?
A: 101 % of control

Q: What about the T/C (dose: 50.0 mg/kg/injection, schedule: Q01DX005 (ip), vehicle: saline) of the same compound?
A: 104 % of control

Q: CCCC(NC(=O)OCc1ccccc1)C(=O)NC(Cc1ccccc1)C(=O)O (stereo not drawn) (Cbz-[Nva]-Phe-OH; configuration not given here) was tested. Which T/C [6] did it give?
A: 108 % of control

Q: What about the T/C [7] of the same compound?
A: 106 % of control

Q: And the T/C [8]?
A: 100 % of control

Q: Which results are given for COc1ccc(/C=C2\SC(=O)N(C)C2=O)cc1OC?
A: T/C [6]: 88 % of control; T/C [7]: 89 % of control

Q: For N#CNC1=C(C#N)C(c2ccccc2)CC(=O)N1 (stereo not drawn), which T/C [9] is on record?
A: 97 % of control

Q: What about the T/C [10] of the same compound?
A: 101 % of control

Q: And the T/C [11]?
A: 100 % of control

Q: N#C/C(=C\c1cccs1)C(=O)c1ccco1 was tested. Which T/C [12] did it give?
A: 101 % of control

Q: What about the T/C [13] of the same compound?
A: 100 % of control

Q: And the T/C (dose: 200.0 mg/kg/injection, schedule: Q01DX009 (ip), vehicle: saline with Tween-80)?
A: 95 % of control

Q: What does the source list for CC(C)(C)n1nc(C2CC2)c(Br)c1NC(=O)c1ccc(Cl)cc1?
A: T/C (dose: 30.0 mg/kg/injection, schedule: Q01DX005 (ip), vehicle: Klucel (hydroxypropylcellulose) (HPC)): 109 % of control; T/C (dose: 60.0 mg/kg/injection, schedule: Q01DX005 (ip), vehicle: Klucel (hydroxypropylcellulose) (HPC)): 96 % of control; T/C (dose: 120.0 mg/kg/injection, schedule: Q01DX005 (ip), vehicle: Klucel (hydroxypropylcellulose) (HPC)): 101 % of control; T/C (dose: 240.0 mg/kg/injection, schedule: Q01DX005 (ip), vehicle: Klucel (hydroxypropylcellulose) (HPC)): 98 % of control

Q: How did the T/C (dose: 25.0 mg/kg/injection, schedule: Q01DX005 (ip), vehicle: saline with Tween-80) turn out when O=C(c1ccccc1)c1cccc(C(=O)c2ccccc2)c1 was run?
A: 99 % of control

Q: What about the T/C [1] of the same compound?
A: 104 % of control

Q: And the T/C [2]?
A: 95 % of control

Q: And the T/C [3]?
A: 105 % of control

Q: Which results are given for Cc1c(N=Nc2ccccc2[N+](=O)[O-])c(-c2ccccc2)nn1C(N)=S?
A: T/C (dose: 100.0 mg/kg/injection, schedule: Q01DX001 (ip), vehicle: Klucel (hydroxypropylcellulose) (HPC)): 114 % of control; T/C (dose: 200.0 mg/kg/injection, schedule: Q01DX001 (ip), vehicle: Klucel (hydroxypropylcellulose) (HPC)): 114 % of control; T/C (dose: 400.0 mg/kg/injection, schedule: Q01DX001 (ip), vehicle: Klucel (hydroxypropylcellulose) (HPC)): 108 % of control

Q: For O=C(O)/C=C/CCCCCO, which T/C (dose: 100.0 mg/kg/injection, schedule: Q01DX001 (ip), vehicle: saline with Tween-80) is on record?
A: 94 % of control

Q: And the T/C (dose: 200.0 mg/kg/injection, schedule: Q01DX001 (ip), vehicle: saline with Tween-80)?
A: 97 % of control

Q: And the T/C (dose: 400.0 mg/kg/injection, schedule: Q01DX001 (ip), vehicle: saline with Tween-80)?
A: 90 % of control

Q: For NCc1ccc(Cc2ccc(CN)cc2)cc1, which T/C [12] is on record?
A: 100 % of control

Q: What about the T/C [13] of the same compound?
A: 100 % of control

Q: How did the T/C (dose: 12.5 mg/kg/injection, schedule: Q01DX009 (ip), vehicle: other) turn out when COC(=O)C1C(C)(C)N=NC1(C)C was run?
A: 113 % of control

Q: What about the T/C (dose: 25.0 mg/kg/injection, schedule: Q01DX009 (ip), vehicle: other) of the same compound?
A: 115 % of control

Q: And the T/C (dose: 50.0 mg/kg/injection, schedule: Q01DX009 (ip), vehicle: other)?
A: 105 % of control

Q: What about the T/C (dose: 100.0 mg/kg/injection, schedule: Q01DX009 (ip), vehicle: other) of the same compound?
A: 103 % of control

Q: What about the T/C (dose: 200.0 mg/kg/injection, schedule: Q01DX009 (ip), vehicle: other) of the same compound?
A: 108 % of control

Q: NS(=O)(=O)/C=C(\Cl)c1ccccc1 was tested. Which T/C (dose: 25.0 mg/kg/injection, schedule: Q01DX009 (ip), vehicle: saline with Tween-80) did it give?
A: 102 % of control

Q: What about the T/C [12] of the same compound?
A: 94 % of control

Q: What about the T/C [13] of the same compound?
A: 94 % of control

Q: Which results are given for COc1ccccc1[B-]12OCC[N+]1(CNC(=O)C1=C(O)C3(O)C(=O)C4=C(O)c5c(O)cccc5C(C)(O)C4CC3C(N(C)C)C1=O)CCO2 (stereo not drawn)?
A: T/C [6]: 105 % of control; T/C [7]: 108 % of control; T/C [8]: 112 % of control

Q: Which results are given for CC(=O)N=C(N)N?
A: T/C [14]: 103 % of control; T/C [15]: 100 % of control; T/C (dose: 200.0 mg/kg/injection, schedule: Q01DX009 (ip), vehicle: saline): 99 % of control

Q: [CH3][Sn]([CH3])([CH3])[Cl] was tested. Which T/C (dose: 0.19 mg/kg/injection, schedule: Q01DX009 (ip), vehicle: saline) did it give?
A: 100 % of control

Q: What about the T/C (dose: 0.39 mg/kg/injection, schedule: Q01DX009 (ip), vehicle: saline) of the same compound?
A: 97 % of control

Q: And the T/C (dose: 0.78 mg/kg/injection, schedule: Q01DX009 (ip), vehicle: saline)?
A: 101 % of control

Q: What does the source list for O=C(CCBr)c1ccc(Cl)cc1?
A: T/C [4]: 107 % of control; T/C [5]: 103 % of control; T/C [16]: 100 % of control

Q: With O=c1n[n+]([O-])ccn1C1OC(CO)C(O)C1O (stereo not drawn) as the compound, how does the T/C [14] read?
A: 119 % of control and 123 % of control

Q: What about the T/C [15] of the same compound?
A: 106 % of control

Q: And the T/C (dose: 300.0 mg/kg/injection, schedule: Q01DX009 (ip), vehicle: saline)?
A: 169 % of control and 170 % of control

Q: And the T/C (dose: 450.0 mg/kg/injection, schedule: Q01DX009 (ip), vehicle: saline)?
A: 96 % of control

Q: With Cc1cc(Nc2cc(=O)[nH]c(=O)[nH]2)ccc1N as the compound, how does the T/C [9] read?
A: 97 % of control

Q: What about the T/C [10] of the same compound?
A: 97 % of control

Q: And the T/C [11]?
A: 93 % of control

Q: What does the source list for CC(Cl)CN1COc2ccc3ccc4c(c3c2C1)CN(CC(C)Cl)CO4 (stereo not drawn)?
A: T/C [6]: 106 % of control and 107 % of control and 117 % of control; T/C [7]: 107 % of control and 112 % of control and 123 % of control; T/C [8]: 117 % of control and 124 % of control; T/C (dose: 400.0 mg/kg/injection, schedule: Q01DX005 (ip), vehicle: Klucel (hydroxypropylcellulose) (HPC)): 116 % of control

Q: How did the T/C (dose: 100.0 mg/kg/injection, schedule: Q01DX001 (sc), vehicle: other) turn out when C1CCC([N-]C2CCCCC2)CC1.C1CCC([N-]C2CCCCC2)CC1.[Cl][Pt+2][Cl] was run?
A: 103 % of control

Q: What about the T/C (dose: 200.0 mg/kg/injection, schedule: Q01DX001 (sc), vehicle: other) of the same compound?
A: 107 % of control

Q: With COc1cc(C(=O)NOCc2cc3c(cc2Cl)OCO3)cc(OC)c1OC as the compound, how does the T/C (dose: 100.0 mg/kg/injection, schedule: Q04DX003 (ip), vehicle: saline sonified) read?
A: 90 % of control

Q: What about the T/C (dose: 400.0 mg/kg/injection, schedule: Q04DX003 (ip), vehicle: saline sonified) of the same compound?
A: 90 % of control

Q: For O=C1c2ccccc2C(=O)N1Cc1ccccc1, which T/C [16] is on record?
A: 104 % of control

Q: What about the T/C (dose: 200.0 mg/kg/injection, schedule: Q04DX003 (ip), vehicle: saline with Tween-80) of the same compound?
A: 95 % of control

Q: And the T/C (dose: 400.0 mg/kg/injection, schedule: Q04DX003 (ip), vehicle: saline with Tween-80)?
A: 100 % of control

Q: N#CN=[N+]([O-])c1ccccc1 was tested. Which T/C (dose: 6.25 mg/kg/injection, schedule: Q04DX003 (ip), vehicle: Klucel (hydroxypropylcellulose) (HPC)) did it give?
A: 100 % of control

Q: And the T/C (dose: 12.5 mg/kg/injection, schedule: Q04DX003 (ip), vehicle: Klucel (hydroxypropylcellulose) (HPC))?
A: 105 % of control

Q: What about the T/C (dose: 25.0 mg/kg/injection, schedule: Q04DX003 (ip), vehicle: Klucel (hydroxypropylcellulose) (HPC)) of the same compound?
A: 106 % of control and 96 % of control
